Measurements taken from US8450280B2, “Activation of peptide prodrugs by hK2” (GenbSpera, Inc., priority 1999, dated 2013).
Like-named read-outs stand apart in the source and are kept apart here. Non-standard residues stand in square brackets, D forms with d. Residues, ends and D or L forms follow the SMILES beside them. *: point of attachment. AMC = Cc1cc(=O)oc2cc(N*)ccc12; Tos = Cc1ccc(S(=O)(=O)*)cc1; Cbz = O=C(OCc1ccccc1)*; Boc = CC(C)(C)OC(=O)*

Assays:
hK2 [1] = molecular target: T1, hK2 (Homo sapiens, UniProt P20151); assay: Kinetic constants of AMC substrate hydrolysis by hK2; type: biochemical; design: key to Kcat: The entry “NR” means that no reaction was detected; conditions: for Activity (%): hydrolytic activity of hK2 in relation to H-Pro-Phe-Arg-AMC: 100 μM substrate; for Kcat: 50 mM Tris pH 7.5, 0.1 M NaCl, 0.2% BSA, 37° C., Lineweaver-Burk, NR = no reaction detected
T1 construct: made in house
T1 sequence (P20151 25-261): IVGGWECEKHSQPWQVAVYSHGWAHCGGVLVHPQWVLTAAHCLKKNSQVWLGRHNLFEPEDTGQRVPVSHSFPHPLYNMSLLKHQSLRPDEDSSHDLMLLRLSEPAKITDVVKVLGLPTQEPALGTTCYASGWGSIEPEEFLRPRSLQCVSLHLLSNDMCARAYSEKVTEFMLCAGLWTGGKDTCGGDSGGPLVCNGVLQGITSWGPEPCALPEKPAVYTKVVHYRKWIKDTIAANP
Experimental: The measurements were done with Fluoroscan II (Labsystems, Helsinki, Finland) using a 355 nm excitation filter and a 460 nm emission filter. The fluorescence of 7-amino-4-methylcoumarin (AMC) (Sigma, St. Louis, Mo., USA) was determined to be 700 FIU/nmol and this value was used in the calculations of the rate of product formation. Unless otherwise indicated all final analyses were performed in 200 μl of the buffer 50 mM Tris pH 7.5, 0.1 M NaCl, and 0.2% BSA at 37° C. using 1.6 pmol hK2. BSA was added to the reaction mixture in order to minimize adsorption of the enzyme to the walls of the microtiter wells. The amount of hK2 was quantified by a commercial PSA immunoassay (Prostatus, Wallac, Turku, Finland) with the Mabs H1 17 and H50 which recognize PSA and hK2 equally well (Lovgren et al., Biochem. Biophys. Res. Co., 213, 888-895 (1995)). Under the conditions described, 1.6 pmol of the hK2 preparation cleaved 50 pmol/min of the 100 μM substrate Pro-Phe-Arg-AMC (SEQ ID NO: 55). During the 20 minute measurement time the consumption of the substrates is <7% of their total amount and was not considered to affect the reaction rate. Initial analysis of the substrates were performed with 3.2 pmol hK2 at a substrate concentration of 250 μM. Km value for the substrates cleaved by hK2 at these conditions were determined using at least four substrate concentrations ranging from 0.2×Km to 5×Km. The Km and kcat values were calculated from Lineweaver-Burk plots.
Substrates ending in either arginine or lysine were tested. […] However, no hydrolysis of Arg-Gln-Arg-Arg-AMC (SEQ ID NO: 63) was detected. […] As with the semenogelins, hK2 also here cleaves substrates with Arg at position P1 and preferentially a large residue or another Arg at position P2. None of the substrates with lysine in the C-terminal position were cleaved.
The activity listed in Table 1 is hydrolytic activity of hK2 with 100 μM substrate in relation to the hydrolytic activity of hK2 with 100 μM of the tissue kallikrein substrate H-Pro-Phe-Arg-AMC (SEQ ID NO: 55). The entry “NR” means that no reaction was detected.

hK2 [2] = molecular target: T1, hK2; assay: Inhibition of hK2 by protease inhibitors (substrate H-Pro-Phe-Arg-AMC); type: biochemical; conditions: for Activity (%) of hK2, percentage of inhibitor-free control: 10 minutes of incubation, 8.3 nM hK2, 90 μM substrate
Experimental: Activity of hK2 (1.6 pmol) was monitored using the substrate H-Pro-Phe-Arg-AMC (SEQ ID NO: 55) (90 μM). Inhibitors, at commonly used concentrations, and hK2 (8.3 nM) were mixed and proteolysis of 90 μM H-Pro-Phe-Arg-AMC (SEQ ID NO: 55) was followed up to 20 minutes, starting directly or 10 minutes after mixing the enzyme with various inhibitors. Inhibition was evaluated by comparison with […] controls.
The proteolytic activity is expressed in percentage of inhibitor-free control after 10 minutes of incubation.
Therefore, PPACK can be used to obtain fast irreversible inhibition of hK2.

hK2 [3] = molecular target: T1, hK2; assay: Kinetic analysis of hK2 inhibition by zinc; type: biochemical; conditions: for Ki: two bound zinc ions model, best fit, substrates Pro-Phe-Arg-AMC and Ala-Arg-Arg-AMC, no BSA
Experimental: Since BSA contains several binding sites for Zn^2+, it could not be used in the kinetics buffer during zinc inhibition experiments. The binding of hK2 to the microtiter well walls caused a constant decrease in the reaction rate, which was however similar to all zinc concentrations. The velocities were calculated from a five-minute measurement time after mixing of the enzymes with the buffer containing substrate and zinc.
The inhibition of hK2 by zinc was first tested against competitive, uncompetitive, mixed, non-competitive, and partial non-competitive inhibitor models using commonly used formulas described for the respective inhibition models. […] The Dixon plots ([Zn^2+]/v) for the inhibition were not linear. However, at low zinc ion concentrations the inhibition pattern looked competitive. The inhibition mechanism is clearly more complex than the ones described by the formulas used. Further analysis of the inhibition mechanism was done by deriving the rate equations for various more complex mechanisms and analyzing the data by least-squares best-fit systems. The possible mechanism required two bound zinc ions, and is presented by Scheme 1.
[formula] where the concentration of free enzyme e is the total enzyme concentration divided by the sum of a) {(the zinc concentration divided by Ki1) times (the zinc concentration divided by Ki2)} and b) {(the zinc concentration divided by Ki1) plus 1} times {(the substrate concentration divided by Ks) plus 1}.
The equation fitted the experimental data quite satisfactorily. The constant values were Ki1=4.6+/−3.9 μM, Ki2=3.2+/−0.7 μM, and k=k′.

[4] = molecular target: sarcoplasmic reticulum (SR) and endoplasmic reticulum (ER) Ca^2+-ATPase (SERCA) pump; conditions: read-out: apparent dissociation constant; cited from earlier work
hK2 [5] = molecular target: T1, hK2; assay: Effect of heparin on hK2 activity (Km and kcat of substrate); type: biochemical; conditions: heparin 10^−4 to 10^−7 M; data not shown
Excerpt: The increase had no significant effect on the calculation of the constants.

## Cc1cc(=O)oc2cc(NC(=O)[C@H](CCCNC(=N)N)NC(=O)[C@H](Cc3ccccc3)NC(=O)[C@@H]3CCCN3)ccc12 [Pro Phe Arg-AMC, H-Pro-Phe-Arg-AMC] (H-Pro-Phe-Arg-{AMC})
hK2 [1]
  hydrolysis by hK2 (in words): best substrate
  Activity (%): hydrolytic activity of hK2 in relation to H-Pro-Phe-Arg-AMC: 100%
hK2 [1]; 1.6 pmol hK2, 100 μM substrate, pH 7.5, 37° C.
  rate of substrate cleavage by hK2 preparation: 50 pmol/min

## Cc1cc(=O)oc2cc(NC(=O)[C@H](CCCNC(=N)N)NC(=O)[C@@H]3CCCN3C(=O)[C@@H](NC(=O)OC(C)(C)C)C(C)C)ccc12 [Val Pro Arg-AMC, boc-Val-Pro-Arg-AMC] (Boc-Val-Pro-Arg-{AMC})
hK2 [1]
  hydrolysis by hK2 (in words): with lower efficiency
  Activity (%): hydrolytic activity of hK2 in relation to H-Pro-Phe-Arg-AMC: 6%

## [Cl-].[Cl-].[Zn+2] [ZnCl2]
hK2 [2]; 8 nM hK2, 90 μM substrate
  inhibition of hK2 (in words): effectively inhibits hK2
hK2 [2]; inhibitor 100 μM
  Activity (%) of hK2, percentage of inhibitor-free control: 10%
hK2 [2]; inhibitor 200 μM
  Activity (%) of hK2, percentage of inhibitor-free control: 1.2%
hK2 [3]
  effect on Km and Vmax of hK2: increased the Km and decreased the Vmax
  reversal of hK2 inhibition by addition of EDTA: totally reversed
hK2 [3]; read-out: Ki1
  Ki: 4.6 µM
hK2 [3]; read-out: Ki2
  Ki: 3.2 µM

## Cc1cc(=O)oc2cc(NC(=O)[C@H](CCCNC(=N)N)NC(=O)[C@H](CCCNC(=N)N)NC(=O)[C@H](CCC(N)=O)NC(=O)[C@@H](N)CCCNC(=N)N)ccc12 [Arg Gln Arg Arg-AMC, H-Arg-Gln-Arg-Arg-AMC] (H-RQRR-{AMC})
hK2 [1]
  hydrolysis by hK2 (in words): no hydrolysis
  Kcat: NR

## Cc1cc(=O)oc2cc(NC(=O)[C@H](CCCNC(=N)N)NC(=O)[C@H](CCCNC(=N)N)NC(=O)[C@H](C)NC(=O)OCc3ccccc3)ccc12 [Ala Arg Arg-AMC, Z-Ala-Arg-Arg-AMC] (Cbz-Ala-Arg-Arg-{AMC})
hK2 [1]
  hydrolysis by hK2 (in words): cleaved quite effectively
  Activity (%): hydrolytic activity of hK2 in relation to H-Pro-Phe-Arg-AMC: 33%

## Cc1cc(=O)oc2cc(NC(=O)[C@H](CCCNC(=N)N)NC(=O)[C@@H](NC(=O)[C@@H](NC(=O)OCc3ccccc3)C(C)C)C(C)C)ccc12 [Val Val Arg-AMC, Z-Val-Val-Arg-AMC] (Cbz-Val-Val-Arg-{AMC})
hK2 [1]
  Kcat: NR

## Cc1cc(=O)oc2cc(NC(=O)[C@H](CCCNC(=N)N)NC(=O)[C@H](CO)NC(=O)[C@H](Cc3ccccc3)NC(=O)OC(C)(C)C)ccc12 [Phe Ser Arg-AMC, Boc-Phe-Ser-Arg-AMC] (Boc-Phe-Ser-Arg-{AMC})
hK2 [1]
  Kcat: NR

## Cc1ccc(S(=O)(=O)NCC(=O)N2CCC[C@H]2C(=O)N[C@@H](CCCCN)C(=O)Nc2ccc3c(C)cc(=O)oc3c2)cc1 [Gly Pro Lys-AMC, Tos-Gly-Pro-Lys-AMC] (Tos-Gly-Pro-Lys-{AMC})
hK2 [1]
  Kcat: NR

## C/C=C(/C)C(=O)O[C@H]1C(C)=C2[C@H]([C@@H]1OC(=O)CCCCCCC)[C@@](C)(OC(C)=O)C[C@H](OC(=O)CCC)[C@@]1(O)[C@H]2OC(=O)[C@@]1(C)O [TG, Thapsigargin]
[4]
  Kd: ≤ 2.2 pM

## Cc1cc(=O)oc2cc(NC(=O)[C@H](CCCNC(=N)N)NC(=O)[C@H](CC(C)C)NC(=O)[C@H](CC(C)C)NC(=O)OCc3ccccc3)ccc12 [Leu Leu Arg-AMC, Z-Leu-Leu-Arg-AMC]
hK2 [1]
  hydrolysis by hK2 (in words): with lower efficiency
  Activity (%): hydrolytic activity of hK2 in relation to H-Pro-Phe-Arg-AMC: 7%

## heparin
hK2 [5]
  effect on Km of the substrate: slightly increased

## Cc1ccc(S(=O)(=O)NCC(=O)N2CCC[C@H]2C(=O)N[C@@H](CCCNC(=N)N)C(=O)Nc2ccc3c(C)cc(=O)oc3c2)cc1 [Gly Pro Arg-AMC, Tos-Gly-Pro-Arg-AMC] (Tos-Gly-Pro-Arg-{AMC})
hK2 [1]
  Kcat: NR

## Cc1cc(=O)oc2cc(NC(=O)[C@H](CCCNC(=N)N)NC(=O)CNC(=O)[C@H](CCC(N)=O)NC(=O)OC(C)(C)C)ccc12 [Gln Gly Arg-AMC, Boc-Gln-Gly-Arg-AMC] (Boc-Gln-Gly-Arg-{AMC})
hK2 [1]
  Kcat: NR

## Cc1cc(=O)oc2cc(NC(=O)[C@H](CCCCN)NC(=O)[C@H](CC(C)C)NC(=O)[C@H](N)C(C)C)ccc12 [Val Leu Lys-AMC, H-D-Val-Leu-Lys-AMC] (H-[dV]-Leu-Lys-{AMC})
hK2 [1]
  Kcat: NR
